# Assay results published in US20240208895A1, “BRANCHED-CHAIN AMINO ACID DERIVATIVES TO TREAT DISEASE” (INTRABIO LTD., priority 2021, published 2024).
# Target: T1, human transporter MCT1 (Homo sapiens, UniProt P53985)
# T1 construct: expressed in transfected cells; host or cells: MDCK-II
# T1 sequence (P53985 1-500): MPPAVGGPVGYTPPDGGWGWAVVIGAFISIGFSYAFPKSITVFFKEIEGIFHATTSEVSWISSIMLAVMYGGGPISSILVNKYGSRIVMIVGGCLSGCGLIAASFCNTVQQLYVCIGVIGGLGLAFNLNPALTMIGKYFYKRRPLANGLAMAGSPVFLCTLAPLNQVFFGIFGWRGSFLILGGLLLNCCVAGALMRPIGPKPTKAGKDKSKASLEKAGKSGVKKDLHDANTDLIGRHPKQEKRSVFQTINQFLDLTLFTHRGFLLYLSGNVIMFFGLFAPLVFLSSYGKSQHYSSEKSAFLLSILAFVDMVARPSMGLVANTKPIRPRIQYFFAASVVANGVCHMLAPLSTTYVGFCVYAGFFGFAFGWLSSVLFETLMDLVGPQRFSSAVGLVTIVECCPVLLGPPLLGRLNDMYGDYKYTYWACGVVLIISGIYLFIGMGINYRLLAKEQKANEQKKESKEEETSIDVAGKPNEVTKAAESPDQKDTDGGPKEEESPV
# Assay: Human MCT1-mediated transport in MDCK-II cells (Example 9)
# Assay type: cell-based
# Conditions: MDCK-II cells expressing human MCT1, pH 5.5, 1 minute, normalized to Vmax of thiophene-2-glyoxylic acid
# Experimental: Representative Compounds of the Disclosure are tested in (i) MDCK-II cells expressing human transporter MCT1; and (ii) MDCK-II cells transfected with a control vector (GFP) as control cells for human transporter MCT1. 2-Thiophene-glyoxylic acid (TPGA) is the positive control for transport.
# • 1. A stock solution is prepared with the test article (Compound of the Disclosure) in DMSO or in HBSS-Bis-Tris. • 2. Final assay solutions of probe substrate or test article contain 0.5% (v/v) DMSO (vehicle control). • 3. Test article concentrations are 10 μM, 30 μM, 100 μM, 300 μM, 1000 μM, 3000 μM, and 10000 μM.
# MDCK-II cells are maintained in DMEM with low glucose and 10% FBS. Cells passages up to 40 are seeded at 60K±10K cells/well on 96-well, transwell membrane plates approximately 24 hours before transfection. Transport assays are carried out approximately 48 hours after transfection.
# • 1. Test system: • a. Test system: 96-well cell culture plate with wells containing a monolayer of MDCK-II cells grown on a permeable support and a corresponding 96-well receiver tray. Cell plates are maintained at 37° C. in 5% CO2 atmosphere prior to initiation of the transport experiment. • b. Pre-incubation is conducted in HBSS, pH 7.4. Transport experiments are conducted in HBSS with Bis-Tris, pH 5.5, without phenol red. Pre-incubation and incubation are conducted at ambient temperatures. • c. Each condition is run in triplicate wells. • d. […] The result from the control cells is used to correct for substrate permeation by routes other than the transporter being investigated in the study. • 2. Prepare the 96-well plate as follows: • a. Wash the basal side of the culture plate insert with HBSS three times. After the final wash, blot the basal side of the wells and keep this side dry. • b. Wash the culture plate wells with HBSS three times. The wells of the culture plate serve as the apical compartment. • 3. Aspirate the final wash from the culture plate. The wells of the culture plate serve as the apical compartment. Add 100 μL of HBSS pH 7.4 pre-incubation buffer containing vehicle to the apical compartments. • 4. Incubate the plates with orbital shaking at approximately 60 RPM for the pre-incubation time specified in Table 1 of this protocol. • 5. Aspirate the pre-incubation buffer from the apical compartment of the plates. Add 100 μL of the experimental buffer that is prepared as follows and maintained at ambient temperatures. • a. For the probe substrate transport assay, the HBSS with Bis-Tris, pH 5.5 in each well contains the probe substrate at 500 μM (positive control for transport) and vehicle control. • b. For the test article assays, the HBSS with Bis-Tris, pH 5.5 in each well contains the test article at 10 μM, 30 μM, 100 μM, 300 μM, 1000 μM, 3000 μM, and 10000 μM. • 6. Incubate at ambient temperature with orbital shaking at approximately 60 RPM for the incubation time of 1 minute. • 7. […]
# • 1. The amount of radiolabeled probe substrate will be quantified with radiometric detection on a 1450 Microbeta (Perkin-Elmer). • 2. The amount of non-radiolabeled probe substrate or test article will be quantified by LC-MS/MS. • 3. […] For uptake assays, the net transporter-mediated uptake rate (V) of the substrate by each SLC transporter will be calculated as follows:
# [formula] • 5. For transport kinetics assessment, Km and Vmax will be calculated by non-linear regression using the Michaelis-Menten equation. • 6. […]
structure (smiles),measurement,value
CC(=O)N[C@@H](CC(C)C)C(=O)O [N-acetyl-L-leucine],uptake mediated by MCT1,transported
